The term IC50 denotes the concentration that gives 50% inhibition.

Consider 2 compounds from ChEMBL document CHEMBL5728472, “Triazolopyrimidine, triazolopyridine compounds, and the composition thereof for treating PRC2-mediated diseases” (2021).

The target in the test is Histone-binding protein RBBP4/Histone-lysine N-methyltransferase EZH2/Polycomb protein EED/Polycomb protein SUZ12 (Homo sapiens, UniProt O75530+Q09028+Q15022+Q15910). Kind of test: TR-FRET Assay: The TR-FRET method was used to measure the PRC2 enzyme activity. First, the enzyme was mixed with compounds at different concentrations and incubated for 30 min at room temperature. The biotin-labeled histone H3 peptide substrate and the cofactor S-adenosylmethionine (SAM) were added to initiate the enzymatic reaction. After reaction was performed at room temperature for 4 hour, Acceptor and Donor were added and incubated for half an hour. The multifunctional microplate reader EnVision (Perkin Elmer Inc.) was used to detect the fluorescence signal. The format is protein-complex assay. Background: TR-FRET usually uses a lanthanide donor and a delayed reading to cut background.
Sequence of Histone-binding protein RBBP4/Histone-lysine N-methyltransferase EZH2/Polycomb protein EED/Polycomb protein SUZ12 (Q15910 whole entry): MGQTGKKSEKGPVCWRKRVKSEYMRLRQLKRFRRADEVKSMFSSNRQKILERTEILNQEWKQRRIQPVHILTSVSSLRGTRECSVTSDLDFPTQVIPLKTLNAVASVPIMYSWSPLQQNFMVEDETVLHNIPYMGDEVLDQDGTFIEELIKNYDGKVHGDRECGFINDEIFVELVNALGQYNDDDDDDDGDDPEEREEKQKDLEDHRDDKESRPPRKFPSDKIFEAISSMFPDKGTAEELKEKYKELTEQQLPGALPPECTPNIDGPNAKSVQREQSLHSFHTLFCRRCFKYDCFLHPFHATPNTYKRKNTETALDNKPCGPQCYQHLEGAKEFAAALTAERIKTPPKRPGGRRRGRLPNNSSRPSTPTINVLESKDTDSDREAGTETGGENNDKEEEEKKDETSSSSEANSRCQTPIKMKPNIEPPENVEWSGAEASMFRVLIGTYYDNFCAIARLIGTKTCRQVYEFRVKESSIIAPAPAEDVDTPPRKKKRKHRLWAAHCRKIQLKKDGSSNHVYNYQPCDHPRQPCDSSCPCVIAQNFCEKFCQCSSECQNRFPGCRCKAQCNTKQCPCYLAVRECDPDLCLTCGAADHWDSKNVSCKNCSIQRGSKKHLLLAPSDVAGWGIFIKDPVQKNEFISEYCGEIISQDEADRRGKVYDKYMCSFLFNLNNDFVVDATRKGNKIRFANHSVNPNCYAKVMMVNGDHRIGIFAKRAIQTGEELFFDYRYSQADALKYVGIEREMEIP
Sequence of Histone-binding protein RBBP4/Histone-lysine N-methyltransferase EZH2/Polycomb protein EED/Polycomb protein SUZ12 (O75530 whole entry): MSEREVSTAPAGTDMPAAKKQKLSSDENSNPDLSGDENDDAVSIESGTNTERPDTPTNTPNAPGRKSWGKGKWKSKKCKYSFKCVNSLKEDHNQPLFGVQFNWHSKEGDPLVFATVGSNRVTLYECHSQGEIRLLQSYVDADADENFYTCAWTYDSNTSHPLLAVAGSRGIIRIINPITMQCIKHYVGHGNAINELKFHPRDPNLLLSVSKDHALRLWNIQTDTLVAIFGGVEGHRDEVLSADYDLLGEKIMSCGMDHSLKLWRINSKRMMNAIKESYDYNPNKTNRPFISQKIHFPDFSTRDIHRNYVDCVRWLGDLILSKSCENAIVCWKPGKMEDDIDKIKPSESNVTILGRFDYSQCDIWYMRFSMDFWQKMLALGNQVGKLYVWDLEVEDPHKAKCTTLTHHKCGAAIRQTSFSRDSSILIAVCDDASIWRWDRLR
Sequence of Histone-binding protein RBBP4/Histone-lysine N-methyltransferase EZH2/Polycomb protein EED/Polycomb protein SUZ12 (Q15022 whole entry): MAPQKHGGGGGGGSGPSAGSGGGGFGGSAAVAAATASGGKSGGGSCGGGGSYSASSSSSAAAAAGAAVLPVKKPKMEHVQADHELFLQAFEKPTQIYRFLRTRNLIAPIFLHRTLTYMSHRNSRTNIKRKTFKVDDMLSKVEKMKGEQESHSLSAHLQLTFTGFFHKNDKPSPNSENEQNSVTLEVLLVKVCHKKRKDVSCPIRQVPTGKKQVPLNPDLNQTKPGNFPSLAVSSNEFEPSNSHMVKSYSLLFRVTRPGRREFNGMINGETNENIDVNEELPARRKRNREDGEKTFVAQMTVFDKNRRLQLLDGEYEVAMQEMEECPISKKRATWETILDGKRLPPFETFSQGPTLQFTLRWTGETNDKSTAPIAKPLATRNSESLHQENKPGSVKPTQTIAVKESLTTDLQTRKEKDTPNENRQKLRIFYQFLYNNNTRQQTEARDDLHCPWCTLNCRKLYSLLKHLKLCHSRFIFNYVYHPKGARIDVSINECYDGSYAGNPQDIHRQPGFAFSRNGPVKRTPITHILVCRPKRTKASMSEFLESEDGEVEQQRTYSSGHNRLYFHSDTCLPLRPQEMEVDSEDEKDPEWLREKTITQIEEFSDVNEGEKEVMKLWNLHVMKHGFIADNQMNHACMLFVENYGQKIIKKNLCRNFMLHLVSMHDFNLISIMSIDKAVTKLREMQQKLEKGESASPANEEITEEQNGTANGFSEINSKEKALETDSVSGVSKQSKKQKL
Sequence of Histone-binding protein RBBP4/Histone-lysine N-methyltransferase EZH2/Polycomb protein EED/Polycomb protein SUZ12 (Q09028 whole entry): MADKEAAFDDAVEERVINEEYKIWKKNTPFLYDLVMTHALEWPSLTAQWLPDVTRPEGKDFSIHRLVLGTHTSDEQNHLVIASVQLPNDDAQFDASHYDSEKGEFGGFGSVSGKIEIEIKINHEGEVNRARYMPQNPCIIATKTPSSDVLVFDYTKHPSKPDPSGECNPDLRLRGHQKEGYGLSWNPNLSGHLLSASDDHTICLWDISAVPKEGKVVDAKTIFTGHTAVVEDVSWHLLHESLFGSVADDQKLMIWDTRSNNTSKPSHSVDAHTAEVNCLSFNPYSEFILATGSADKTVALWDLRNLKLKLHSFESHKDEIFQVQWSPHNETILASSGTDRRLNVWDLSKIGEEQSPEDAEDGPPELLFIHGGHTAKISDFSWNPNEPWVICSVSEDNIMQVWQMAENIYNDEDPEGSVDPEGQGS

On to `COC(=O)N1CC=C(c2cnc(NCc3c(F)ccc4c3CCO4)n3cnnc23)CC1`, for which the 50% inhibitory concentration (IC50) amounted to 2.5 nM.
Turning to `Fc1ccc2c(c1CNc1ncc(C3=CCNCC3)c3nncn13)CCO2`, the IC50 turned out to be 218 nM.
